Measurements: PubChem BioAssay (NCI)
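The compound was tested at five concentrations on cells cultured in 96-well plates, with a 48-hour exposure period. GI50 marks 50% less growth. TGI is the concentration that stops growth completely.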

How the values were obtained:
Assay in all cases: NCI anticancer screen, dose series, 48 h
U251 CNS = system: U251 CNS
CAKI-1 renal = system: CAKI-1 renal
UO-31 renal = system: UO-31 renal
LOX IMVI melanoma = system: LOX IMVI melanoma
T-47D breast = system: T-47D breast
SK-MEL-28 melanoma = system: SK-MEL-28 melanoma
M14 melanoma = system: M14 melanoma
OVCAR-5 ovarian = system: OVCAR-5 ovarian
EKVX NSCLC = system: EKVX NSCLC
MDA-MB-231 breast = system: MDA-MB-231 breast
SK-OV-3 ovarian = system: SK-OV-3 ovarian
ACHN renal = system: ACHN renal
UACC-62 melanoma = system: UACC-62 melanoma
RPMI-8226 leukemia = system: RPMI-8226 leukemia
HOP-62 NSCLC = system: HOP-62 NSCLC
HT29 colon = system: HT29 colon
PC-3 prostate = system: PC-3 prostate
RXF 393 renal = system: RXF 393 renal
SW-620 colon = system: SW-620 colon
NCI-H522 lung = system: NCI-H522 lung
MCF7 breast = system: MCF7 breast
OVCAR-4 ovarian = system: OVCAR-4 ovarian
NCI/ADR-RES ovarian = system: NCI/ADR-RES ovarian
HL-60(TB) leukemia = system: HL-60(TB) leukemia
HOP-92 NSCLC = system: HOP-92 NSCLC
SNB-75 CNS = system: SNB-75 CNS
SK-MEL-5 melanoma = system: SK-MEL-5 melanoma
HCT-15 colon = system: HCT-15 colon
MOLT-4 leukemia = system: MOLT-4 leukemia
A549 NSCLC = system: A549 NSCLC
HS 578T breast = system: HS 578T breast
BT-549 breast = system: BT-549 breast
MDA-MB-435 = system: MDA-MB-435
SF-268 CNS = system: SF-268 CNS
OVCAR-3 ovarian = system: OVCAR-3 ovarian
MALME-3M melanoma = system: MALME-3M melanoma
NCI-H226 lung = system: NCI-H226 lung
OVCAR-8 ovarian = system: OVCAR-8 ovarian
NCI-H23 lung = system: NCI-H23 lung
KM12 colon = system: KM12 colon
COLO 205 colon = system: COLO 205 colon
TK-10 renal = system: TK-10 renal
IGROV1 ovarian = system: IGROV1 ovarian
SR leukemia = system: SR leukemia
786-0 renal = system: 786-0 renal
SF-295 CNS = system: SF-295 CNS
NCI-H460 lung = system: NCI-H460 lung
A498 renal = system: A498 renal
SN12C renal = system: SN12C renal
SNB-19 CNS = system: SNB-19 CNS
SF-539 CNS = system: SF-539 CNS
K-562 leukemia = system: K-562 leukemia
SK-MEL-2 melanoma = system: SK-MEL-2 melanoma
CCRF-CEM leukemia = system: CCRF-CEM leukemia
HCT-116 colon = system: HCT-116 colon
DU-145 prostate = system: DU-145 prostate

`Nc1cc(N)c2nc(NCCc3ccc(Cl)c(Cl)c3)cnc2c1` showed a GI50 (U251 CNS) of 11.7 µM, a TGI (U251 CNS) of 23.9 µM and a GI50 (CAKI-1 renal) of 4.89 µM. The TGI (CAKI-1 renal) was 18.2 µM, the GI50 (UO-31 renal) was 6.3 µM and the TGI (UO-31 renal) was 20.3 µM. The GI50 (LOX IMVI melanoma) was 12 µM, the TGI (LOX IMVI melanoma) was 31.1 µM and the GI50 (T-47D breast) was 2.83 µM. It also gave a TGI (T-47D breast) of 8.65 µM, a GI50 (SK-MEL-28 melanoma) of 13.4 µM and a TGI (SK-MEL-28 melanoma) of 26.2 µM. The GI50 (M14 melanoma) was 18 µM, the TGI (M14 melanoma) was 38.5 µM and the GI50 (OVCAR-5 ovarian) was 20 µM. It also gave a TGI (OVCAR-5 ovarian) of 34.6 µM, a GI50 (EKVX NSCLC) of 12.1 µM and a TGI (EKVX NSCLC) of 24.6 µM. It also gave a GI50 (MDA-MB-231 breast) of 4.72 µM, a TGI (MDA-MB-231 breast) of 16.5 µM and a GI50 (SK-OV-3 ovarian) of 17.1 µM. The TGI (SK-OV-3 ovarian) was 32 µM, the GI50 (ACHN renal) was 14.8 µM and the TGI (ACHN renal) was 28 µM. The GI50 (UACC-62 melanoma) was 14.1 µM, the TGI (UACC-62 melanoma) was 27.8 µM and the GI50 (RPMI-8226 leukemia) was 2.54 µM. The TGI (RPMI-8226 leukemia) was 7.81 µM, the GI50 (HOP-62 NSCLC) was 19.8 µM and the TGI (HOP-62 NSCLC) was 38 µM. For the same compound, the GI50 (HT29 colon) was 6.47 µM, the TGI (HT29 colon) was 18.8 µM and the GI50 (PC-3 prostate) was 9.32 µM. For the same compound, the TGI (PC-3 prostate) was 21.3 µM, the GI50 (RXF 393 renal) was 13.8 µM and the TGI (RXF 393 renal) was 30.2 µM. For the same compound, the GI50 (SW-620 colon) was 16.2 µM, the TGI (SW-620 colon) was 32 µM and the GI50 (NCI-H522 lung) was 12.6 µM. For the same compound, the TGI (NCI-H522 lung) was 33.7 µM, the GI50 (MCF7 breast) was 3.08 µM and the TGI (MCF7 breast) was 13.3 µM. It also gave a GI50 (OVCAR-4 ovarian) of 1.81 µM, a TGI (OVCAR-4 ovarian) of 3.26 µM and a GI50 (NCI/ADR-RES ovarian) of 20.5 µM. The TGI (NCI/ADR-RES ovarian) was 39.7 µM, the GI50 (HL-60(TB) leukemia) was 2.15 µM and the TGI (HL-60(TB) leukemia) was 4.88 µM. The GI50 (HOP-92 NSCLC) was 6.15 µM, the TGI (HOP-92 NSCLC) was 19.5 µM and the GI50 (SNB-75 CNS) was 14.2 µM. The TGI (SNB-75 CNS) was 27.2 µM, the GI50 (SK-MEL-5 melanoma) was 13.8 µM and the TGI (SK-MEL-5 melanoma) was 27.1 µM. It also gave a GI50 (HCT-15 colon) of 13.5 µM, a TGI (HCT-15 colon) of 27.3 µM and a GI50 (MOLT-4 leukemia) of 2.5 µM. For the same compound, the TGI (MOLT-4 leukemia) was 8.22 µM, the GI50 (A549 NSCLC) was 17.7 µM and the TGI (A549 NSCLC) was 34.2 µM. The GI50 (HS 578T breast) was 23.5 µM, the TGI (HS 578T breast) was 56.9 µM and the GI50 (BT-549 breast) was 20.1 µM. The TGI (BT-549 breast) was 34.8 µM, the GI50 (MDA-MB-435) was 3.96 µM and the TGI (MDA-MB-435) was 13.6 µM. It also gave a GI50 (SF-268 CNS) of 4.7 µM, a TGI (SF-268 CNS) of 17.6 µM and a GI50 (OVCAR-3 ovarian) of 2.05 µM. The TGI (OVCAR-3 ovarian) was 5.3 µM, the GI50 (MALME-3M melanoma) was 3.44 µM and the TGI (MALME-3M melanoma) was 11.1 µM. It also gave a GI50 (NCI-H226 lung) of 21.4 µM, a TGI (NCI-H226 lung) of 47.6 µM and a GI50 (OVCAR-8 ovarian) of 12.7 µM. For the same compound, the TGI (OVCAR-8 ovarian) was 25.3 µM, the GI50 (NCI-H23 lung) was 19.9 µM and the TGI (NCI-H23 lung) was 45.7 µM. The GI50 (KM12 colon) was 13 µM, the TGI (KM12 colon) was 30.4 µM and the GI50 (COLO 205 colon) was 5.6 µM. It also gave a TGI (COLO 205 colon) of 24.3 µM, a GI50 (TK-10 renal) of 18.5 µM and a TGI (TK-10 renal) of 33.3 µM. The GI50 (IGROV1 ovarian) was 14.5 µM, the TGI (IGROV1 ovarian) was 28.7 µM and the GI50 (SR leukemia) was 3.9 µM. The TGI (SR leukemia) was 20.9 µM, the GI50 (786-0 renal) was 16.5 µM and the TGI (786-0 renal) was 32.9 µM. The GI50 (SF-295 CNS) was 15.3 µM, the TGI (SF-295 CNS) was 29.6 µM and the GI50 (NCI-H460 lung) was 15.4 µM. For the same compound, the TGI (NCI-H460 lung) was 35 µM, the GI50 (A498 renal) was 20.3 µM and the TGI (A498 renal) was 34.5 µM. The GI50 (SN12C renal) was 11.7 µM, the TGI (SN12C renal) was 23.9 µM and the GI50 (SNB-19 CNS) was 15.8 µM. It also gave a TGI (SNB-19 CNS) of 30 µM, a GI50 (SF-539 CNS) of 15.4 µM and a TGI (SF-539 CNS) of 29.8 µM. It also gave a GI50 (K-562 leukemia) of 3.36 µM, a TGI (K-562 leukemia) of 14.1 µM and a GI50 (SK-MEL-2 melanoma) of 8.23 µM. The TGI (SK-MEL-2 melanoma) was 21.4 µM, the GI50 (CCRF-CEM leukemia) was 2.02 µM and the TGI (CCRF-CEM leukemia) was 5.05 µM. It also gave a GI50 (HCT-116 colon) of 3.7 µM, a TGI (HCT-116 colon) of 15.1 µM and a GI50 (DU-145 prostate) of 17.2 µM. It also gave a TGI (DU-145 prostate) of 31 µM.
